Patent US20250281464A1, “TREATMENT OF PATHOGENIC NEISSERIA SP. INFECTION WITH TRIAZOLE ANTIFUNGAL AGENTS” (Virginia Tech Intellectual Properties, Inc., priority 2022, published 2025)
≈ marks a conversion by molar mass, not a printed value. Like-named read-outs stand apart in the source and are kept apart here.

Legend:
N. gonorrhoeae isolates = experiment: MIC against panel of N. gonorrhoeae clinical isolates; type: cell-based, Neisseria gonorrhoeae; conditions: for MIC50 / MIC90: Neisseria gonorrhoeae; for MIC50: read-out: MIC50; for MIC90: read-out: MIC90
[1] = MIC against normal gut microbiota; type: cell-based
From the text: (§1) Disrupting the intestinal microbiota using broad-spectrum antimicrobial therapy increases the susceptibility of hosts to C. difficile colonization.

Bacteroides dorei = experiment: MIC against normal gut microbiota; type: cell-based; conditions: Bacteroides dorei (2 strains)
From the text: as §1

[2] = test system: Bifidobacterium angulatum; experiment: MIC against normal gut microbiota; type: cell-based; conditions: Bifidobacterium angulatum (1 strain)
From the text: as §1

Lactobacillus brevis = experiment: MIC against normal gut microbiota; type: cell-based; conditions: Lactobacillus brevis (1 strain)
From the text: as §1

Staphylococcus aureus = experiment: MIC against normal gut microbiota; type: cell-based; conditions: Staphylococcus aureus (1 strain)
From the text: as §1

[3] = Table 1, 104 N. gonorrhoeae isolates
[4] = Table 3, 103 N. gonorrhoeae isolates with different resistance profiles

## C[C@@H](c1nc(-c2ccc(C#N)cc2)cs1)[C@](O)(Cn1cncn1)c1cc(F)ccc1F [Isavuconazole]
N. gonorrhoeae isolates; [3]
  MIC50: 0.5 µg/mL (≈ 1.14 µM)
  MIC90: 1 µg/mL (≈ 2.29 µM)
  MIC Range: 0.015 to 2 µg/mL
N. gonorrhoeae isolates; [4]
  MIC50: 0.5 µg/mL (≈ 1.14 µM)
  MIC90: 1 µg/mL (≈ 2.29 µM)
  MIC Range: 0.015 to 4 µg/mL
[1]; Bacteroides adolescentis (2 strains)
  MIC Range: >256 µg/mL
[1]; Bacteroides breve (2 strains)
  MIC Range: >256 µg/mL
[1]; Bacteroides longum (2 strains)
  MIC Range: >256 µg/mL
Bacteroides dorei
  MIC Range: >256 µg/mL
[2]
  MIC Range: >256 µg/mL
Lactobacillus brevis
  MIC Range: >256 µg/mL
Staphylococcus aureus
  MIC Range: >256 µg/mL
